Results taken from patent US20220096664A1, “STABILIZED FORMULATIONS CONTAINING IODINATED CONTRAST AGENTS AND CYCLODEXTRINS” (Verrow Pharmaceuticals, Inc., priority 2012, published 2022).
“Also recorded” adds a separate entry of the source. Like-named read-outs stand apart in the source and are kept apart here.

Columns and labels:
[1] = assay type: physicochemical
Protocol: (§1) The lamps were switched on and the solutions irradiated for 18 to 24 hours for the ultraviolet (UV) lamps or 72 to 90 hours for the visible (VIS) light lamps. At the end of the selected irradiation time, the cuvettes were removed from the photolysis chamber and mixed by inversion 2-times. The caps were then removed and 40 microliter aliquots taken and diluted with 1 mL of an aqueous solution containing ˜0.9 mg/mL sodium thiosulfate. The thiosulfate solution converted any I2, IO3^−, and I3^− present in the solution tor such that total iodine species could be determined in one assay.
(§2) The diluted solutions were assayed by high pressure liquid chromatography (HPLC) using a 4.6×250 mm, C-18, 5 micron particle size, reversed phase column with detection at 280 nm for the contrast agent and 230 nm for the thiosulfate and the iodide ion (r). A mobile phase of 30:70 methanol:aqueous buffer (50 mM KH2PO4+7 mL/L 40% tetrabutyl ammonium hydroxide) at 0.75 mL/min was used for elution. Injection volume was 20 microliters. External standards were prepared containing each contrast agent, potassium iodide, and sodium thiosulfate solution and analyzed along with the irradiated samples. The results were reported as weight percentage iodide formed (mg iodide/mg contrast agent times 100).
Aqueous solutions were prepared containing 50 mM iodinated contrast agent, 10 mM tromethamine HCl buffer (TRIS), with and without sulfobutylether beta-cyclodextrin with an average degree of substitution-7 (SBE7-β-CD), or 2-hydroxypropyl beta-cyclodextrin with an average degree of substitution of ˜6.3 (HP6.3-β-CD) or ˜4.3 (HP4.3-β-CD). The iohexol solution was prepared by dissolving solid iohexol powder while the other solutions were prepared by diluting commercial formulated products and adding sufficient TRIS buffer to reach 10 mM. The pH of the solutions was adjusted to 7.4 with 0.1N hydrochloric acid.
Aliquots of the solutions were irradiated with visible light for 72 hours (0.52 million lux hours). Other aliquots were autoclaved for 20 minutes at 121° C., cooled to room temperature and then irradiated with ultraviolet light for 18 hours (119 watt hours/m2). The solutions were then processed, analyzed and reported as in Example 2, except that the chromatographic peaks of the contrast agents were evaluated at 300 nm for both samples and standards.
Aqueous solutions were prepared containing 50 mM iohexol, 0, 2.5, 5, 7.5, or 10 mM tromethamine HCl (TRIS) buffer, with and without 2.5 mM sulfobutylether beta-cyclodextrin with an average degree of substitution-7 (SBE7-β-CD). The pH of the solutions was adjusted to 7.4 with 0.1N hydrochloric acid and the solutions were transferred to glass vials. The vials were stoppered, crimp-capped and autoclaved for 20 minutes at 121° C. The pH of the autoclaved solutions was measured after the solutions were at room temperature.
Aliquots of the autoclaved solutions were irradiated with visible light for 72 hours (0.52 million lux hours) and other aliquots irradiated with ultraviolet light for 18 hours (119 watt hours/m2). The solutions were then processed, analyzed and reported as in Example 2, except that the chromatographic peak of the iohexol was evaluated at 300 nm for both samples and standards.
Aqueous formulations were prepared containing iodinated contrast agents at concentrations used commercially in medical procedures. Sulfobutylether-cyclodextrin, sodium salt, average degree of substitution ˜7 (SBE7CD) was added at varying agent:CD mole ratios. The formulations were placed in glass vials, sealed with rubber stoppers and aluminum crimps, and autoclaved at 121° C. for 20 minutes. […]

Beagle dog = assay: Cardiovascular electrophysiology and hemodynamics after injection into the left main coronary artery; assay type: in vivo
Protocol: Aqueous formulations were prepared containing 755 mg/mL iohexol without (formulation 1) or with (formulation 2) sulfobutylether β-cyclodextrin, sodium salt (average degree of substitution-7) at an iohexol:SCD mole ratio of 1:0.025. The addition of the SCD added 154 mM sodium to the solution as its counterion. The formulations also contained 0.1 mg/mL edetate calcium disodium hydrate, and 1.2 mg/mL tromethamine buffer, with the pH of each solution adjusted to 7.4 with 1N HCl. The solutions were sterilized by filtration through a 0.22 micron filter. […]
The instrumentation provided measurement of right heart pressure, left ventricular pressure, aortic pressure, cardiac output and electrocardiography (ECG). The specific parameters measured were: systolic artery pressure (SAP), mean aortic pressure (MAP), diastolic aortic pressure (DAP), left ventricular systolic pressure (LVSP), left ventricular end diastolic pressure (LVEDP), left ventricle dP/dtmax (an indirect measure of contractile force), left ventricle dP/dtmin, cardiac output (CO), systemic vascular resistance (SVR), pulmonary vascular resistance (PVR), pulmonary artery pressure (PAP), monophasic action potential duration (MAPD30%, 50%, 90%), heart rate (HR), and from the ECG; PR interval, QRS duration, QT/QTc interval, JT/JTc interval (as needed) and arrhythmogenesis.

[2] = Photostability: iodide formed after UV light irradiation; assay type: physicochemical; details: pH 8
Protocol: Aqueous solutions comprising iodinated contrast agents were prepared and evaluated in a photolysis chamber as described in the ICH guidance document, Q1B Photostability Testing of New Drug Substances and Products, available from the US Food and Drug Administration, incorporated herein by reference. The solutions were placed in 1 cm×1 cm (3 mL) quartz cuvettes having 2 clear sides and 2 sides etched. Lids were placed on the cuvettes and sealed with a wrap of Parafilm® around the joint. The cuvettes were placed in a photolysis chamber, upright on a flat surface beneath and centered between two horizontal 24 inch fluorescent lamps, (GE, black light F20T12, 20 watt for ultraviolet, or Philips F20T12/CW, 20 watt for visible) placed 6 cm apart. The cuvettes were positioned such that their two clear sides were facing the two lamps.
Cuvettes were spaced ˜2 cm from each other, and no closer than 15 cm from the ends of the lamps. This positioning allowed reproducible light exposure to all cuvettes.
as §1, §2
The absorbance readings at 400 nm due to light exposure were plotted against time of exposure and the resulting correlation used to determine the UV and VIS light exposure. A change in absorbance reading of 0.45 was assumed equivalent to 200 watt hours/square meter for the UV light and a change of 0.51 was assumed equivalent to 1.2 million lux hours for the VIS light. The UV lamps provided 6.62 watts/square meter and the VIS lamps provided 7180 lux.
Aqueous solutions were prepared containing 50 mM contrast agent by diluting commercially available solutions with water. Tromethamine HCl buffer (TRIS), was added to solutions as necessary to increase the TRIS content to that of the commercial product before dilution.
SCD was added to the solutions at various mole ratios and the pH of the solutions adjusted to 7.4 with 0.1N hydrochloric acid or 0.1N sodium hydroxide. The solutions were irradiated with UV light for 18 hours (119 watt hours/m^2) then processed, analyzed and reported as in Example 2. The SCDs evaluated were sulfobutyl ether beta-cyclodextrin with an average degree of substitution of 7 (SBE-704CD), and two 2-hydroxypropyl beta-cyclodextrin derivatives having 6.3 (HP-6.3n/CD) and 4.3 (HP-4.3-βCD) average degrees of substitution.
Aqueous solutions were prepared containing 50 mM contrast agent by diluting commercially available solutions with distilled water. Tromethamine HCl buffer (TRIS), was added to some solutions to increase the buffer content.
The solutions were divided and SBE-7-CD added to one aliquot at a contrast agent:SCD mole ratio of 1:1. The pH of the solutions was adjusted to 5, 6, 7, 7.4 or 8 with 0.1N hydrochloric acid or sodium hydroxide. […]

[3] = contrast media solutions; cited from earlier work
endothelial HMEC cells = details: incubation with sodium or potassium iodide; cited from earlier work
[4] = tested on: bovine aortic endothelial cells; details: cited from earlier work

CC(=O)N(CC(O)CO)c1c(I)c(C(=O)NCC(O)CO)c(I)c(C(=O)NCC(O)CO)c1I (stereo not drawn) [Iohexol, iohexol]
iodide degradant after UV irradiation in the presence of the SCD [1]: Less of the iodide degradant was observed in the presence of the SCD
stabilization against photolysis by visible light irradiation [1]: the SCD also stabilized the solutions against photolysis by visible light irradiation
qualitative alterations in electrocardiographic morphology (Beagle dog; concomitant with injection into the coronary artery): QRS complex widening along with ST segment depression; also recorded: Scattered premature ventricular contractions
ECG morphology returned to normal after the last injection (Beagle dog; intracoronary): within five minutes
stabilization against photolysis by UV light [2]: stabilized iohexol against photolysis by UV light
degradation in solution after exposure to ultraviolet light [3]: formation of iodine and iodide ions

I [iodide]
toxicity in cultured endothelial HMEC cells (endothelial HMEC cells): causes toxicity

CN(C(=O)CO)c1c(I)c(C(=O)NCC(O)CO)c(I)c(C(=O)NCC(O)CO)c1I (stereo not drawn) [iomeprol]
toxicity to bovine aortic endothelial cells ([4]; X-ray irradiated contrast agent): toxic to bovine aortic endothelial cells
toxicity to bovine aortic endothelial cells ([4]; non-irradiated contrast agent): not toxic
